Data on four compounds can be found in patent publication US5641804A, “Fungicidal compound comprising a cyclic polylactone” (Novo Nordisk A/S, priority 1992, dated 1997).

The test system of one assay is Alternaria alternata. As to the kind of experiment: Agar well inhibition zone, Alternaria alternata (Aa). Conditions: 15 μl per well, 3 days at 25° C.; for zone of inhibition at 500 µg/mL: 0.5 mg/ml; for zone of inhibition at 1000 µg/mL: 1.0 mg/ml. Type of assay: cell-based. How it is done: Alternaria alternata (Aa) black mould coverings, leaf spot
(§1) Each of the above mentioned 9 pathogens were separately innoculated into 100 ml of potato dextrose (PD) bouillon and shaken at 200 rpm at 25° C. for 7 days. The mycelium was harvested and homogenized for about 10 seconds in a Warring blender and 1-5 ml of the blended mycelium was transferred to petri dishes with a diameter of 14 cm. […] 20 ml of potato dextrose agar (PDA) having a temperature of 45° C. were poured into each of the petri dishes and thorougly mixed with the blended mycelium present therein. When the agar had solidified, wells of a diameter of 4 mm were punched in the agar, and 15 μl of test solutions containing varicus concentrations of compound Ia, Ib and IIa dissolved in ethanol was applied to each well. The plates were incubated for three days at 25° C. and the inhibition zones measured (in mm).
(§2) The experiments were repeated and in the second run, Bc plates were made from Bc spores (the plates were termed Bc2) as such plates may result in a more uniform growth.

Another assay has as its system Phoma betae. The assay can be described thus: Agar well inhibition zone, Phoma betae (Pb). Type of assay: cell-based. Conditions: 15 μl per well, 3 days at 25° C.; for zone of inhibition at 500 µg/mL: 0.5 mg/ml. As to the method:
Phoma betae (Pb) seedling black rot, black leg
as §1, with “mm). […]” for “mm).”

Assay [1] has as its system mouse peritoneal macrophage. The assay can be described thus: Mouse peritoneal macrophage assay, chemiluminescence (phagocytosis). Format: cell-based.
For assay [2], the system named is Botrytis cinerea. As to the kind of experiment: Agar well inhibition zone, Botrytis cinerea, plates made from spores (Bc2). Conditions: for appearance of Bc zones / time of incubation after which Bc zones could be seen: Bc plates; for zone of inhibition at 500 µg/mL: 0.5 mg/ml; for zone of inhibition at 1000 µg/mL: 1.0 mg/ml. Format: cell-based. As to the method:
(§3) Botrytis cinerea (Bc) grey mould
as §1, §2

For another assay, the system named is Phoma lingam. As to the kind of experiment: Agar well inhibition zone, Phoma lingam (Pl). Type of assay: cell-based. Set-up: key to inhibition zone P1: clear; diffuse; very diffuse; +: very weak. The following applies: 15 μl per well, 3 days at 25° C.; for zone of inhibition at 1000 µg/mL: 1.0 mg/ml. How it is done:
Phoma lingam (Pl) canker and dry rot
as §1, with “mm). […]” for “mm).”

A further assay relates to Sclerotinia sclerotiorum. As to the kind of experiment: Agar well inhibition zone, Sclerotinia sclerotiorum (Ss). Format: cell-based. Set-up: key to inhibition zone Ss: clear; diffuse; very diffuse; +: very weak. Conditions: 15 μl per well, 3 days at 25° C. As to the method:
Sclerotinia sclerotiorum (Ss) white mould disease, stem rot
as §1, with “mm). […]” for “mm).”

A further assay relates to Pyrenophora teres. As to the kind of experiment: Agar well inhibition zone, Pyrenophora teres (Pt). The following applies: 15 μl per well, 3 days at 25° C.; for zone of inhibition at 500 µg/mL / zone of inhibition at 1000 µg/mL / zone of inhibition at 100 µg/mL: Pyrenophora teres, 72 h; for zone of inhibition at 500 µg/mL: 0.5 mg/ml; for zone of inhibition at 1000 µg/mL: 1.0 mg/ml. More on the design: key to inhibition zone Pt: clear; diffuse; very diffuse; +: very weak. Type of assay: cell-based. How it is done: Pyrenophora teres (Pt) net blotch disease
as §1, with “mm). […]” for “mm).”

For another assay, the system named is Ascochyta pisi. As to the kind of experiment: Agar well inhibition zone, Ascochyta pisi (Ap). Type of assay: cell-based. More on the design: key to inhibition zone Ap: clear; diffuse; very diffuse; +: very weak. Conditions: 15 μl per well, 3 days at 25° C.; for zone of inhibition at 1000 µg/mL: 1.0 mg/ml. As to the method:
Ascochyta pisi (Ap) leaf, stem and pod rot
as §1, with “mm). […]” for “mm).”

The test system of a further assay is Monilinia fructigena. The assay can be described thus: Agar well inhibition zone, Monilinia fructigena (Mf). Type of assay: cell-based. The following applies: 15 μl per well, 3 days at 25° C.; for zone of inhibition at 500 µg/mL: 0.5 mg/ml; for zone of inhibition at 1000 µg/mL: 1.0 mg/ml. How it is done:
Monilinia fructigena (Mf) brown rot, fruit rot
as §1, with “mm). […]” for “mm).”

In another assay the test system is plant pathogenic fungi. As to the kind of experiment: In vitro fungicidal activity spectrum over the pathogens tested. Type of assay: cell-based. How it is done:
The following pathogens were used:
as §1, §2

Assay [3] deals with mouse peritoneal macrophage. The assay can be described thus: Mouse peritoneal macrophage assay, cellular ATP (viability). Format: cell-based.
Assay [4] relates to Botrytis cinerea. As to the kind of experiment: Agar well inhibition zone, Botrytis cinerea, mycelium plates (Bc1). Format: cell-based. More on the design: key to inhibition zone Bc1: clear; diffuse; very diffuse; +: very weak. Conditions: 15 μl per well, 3 days at 25° C. How it is done:
as §3
as §1, with “mm). […]” for “mm).”

The subject of assay [5] is Botrytis cinerea. As to the kind of experiment: Fungicidal activity in vivo against Botrytis cinerea on sprayed plants. Conditions: spray to run off, assessed after 6 days. How it is done: Activity of the compounds Ia and Ib against Botrytis cinerea Host: Lycopersicon esculentum (tomato, var. First in Field) […] plants (5 weeks old) were sprayed to run off with liquid solutions using a handhold sprayer (Bink Bullows 900). The solution (70% EtOH) had different concentrations of the compounds Ia and Ib. The plants were kept 24 hours in a green house to dry before they were inoculated with a spore suspension containing 1×10^5 spores/ml in 25% grape juice. The inoculation was carried out with a handhold atomizer (Wagner, Pico Bel). The plants were then incubated (16 hours light (1000 lux) and 8 hours dark) at 15°-20° C. in clear polyethylene bags to raise the relative humidity to 95-100%. After 6 days the assessment was done.

The test system of another assay is nerve growth factor. The following applies: cited from earlier work.
The mark [6] stands for this setting: Neocamarosporium betae, 72 h, 0.1 mg/ml.
Where [7] appears, read: 0.1 mg/ml, 15 μl per well, 3 days at 25° C., plates from spores.
[8] abbreviates: Botrytis cinerea, 72 h, 15 μl per well, 3 days at 25° C., plates from spores.
Setting [9] is: Plenodomus lingam, 72 h, read-out: inhibition zone P1.
Setting [10] is: Ascochyta pisi, 72 h, 0.1 mg/ml.
Setting [11] is: Botrytis cinerea, 72 h, 0.1 mg/ml.

≈ marks a conversion by molar mass, not a printed value.

Take `C[C@@H]1Cc2cc(O)cc(O)c2C(=O)O[C@H](C)CC(=O)OC[C@@H](O)CC(=O)O[C@H](C)Cc2cc(O)cc(O)c2C(=O)O[C@H](C)CC(=O)O1` [Compound IIa]: the zone of inhibition at 500 µg/mL with Alternaria alternata (Alternaria alternata, 72 h) was 0 mm; in the assay on Phoma betae (Neocamarosporium betae, 72 h), 0 mm; in the assay with Botrytis cinerea [2] (setting [8]) it was 37 mm; with Phoma lingam (Plenodomus lingam, 72 h, 0.5 mg/ml, read-out: inhibition zone P1), 14 mm; in the assay on Pyrenophora teres, 0 mm; in the assay on Ascochyta pisi (Ascochyta pisi, 72 h, 0.5 mg/ml), 0 mm. Further, the zone of inhibition at 500 µg/mL in the assay with Monilinia fructigena (Monilinia fructigena, 72 h) is 40 mm. The zone of inhibition at 1000 µg/mL in the assay with Alternaria alternata (Alternaria alternata, 72 h) came to 0 mm; with Botrytis cinerea [2] (setting [8]), 45 mm; with Phoma lingam (setting [9]), 18 mm; in the assay with Pyrenophora teres, 0 mm; with Ascochyta pisi (Ascochyta pisi, 72 h), 0 mm; with Monilinia fructigena (Monilinia fructigena, 72 h), 40 mm. The zone of inhibition at 100 µg/mL with Phoma betae (setting [6]) and in the assay with Ascochyta pisi (setting [10]) was 0 mm throughout. Further, the half-inhibitory concentration (IC50) in assay [1] and in assay [3] was less than 10 µg/mL in each case. Further, in the assay on Botrytis cinerea [2] (setting [7]), the “inhibition zone Bc2” value is reported as 30d mm. Moreover, the “appearance of Bc zones” value with Botrytis cinerea [2] is “very diffuse”. Further, in the assay on Botrytis cinerea [2], the “time of incubation after which Bc zones could be seen” value is recorded as not below 3 days. Further, in the assay on Phoma lingam (0.1 mg/ml), the “inhibition zone P1” value stood at 31d mm. Besides, the “inhibition zone Ss” value with Sclerotinia sclerotiorum (0.1 mg/ml) is recorded as 40d mm; with Sclerotinia sclerotiorum (0.5 mg/ml) it was “+”; in the assay with Sclerotinia sclerotiorum (1.0 mg/ml), “+”. Besides, in the assay on Pyrenophora teres (0.1 mg/ml), the “inhibition zone Pt” value was “+”. The “inhibition zone Mf” value in the assay with Monilinia fructigena (0.1 mg/ml) is recorded as 40v. The “number of pathogens against which compound was active” value in the assay with plant pathogenic fungi (with respect to Bc only for the plate containing spores) was 5 pathogens. In addition, the “inhibition zone Bc1” value with Botrytis cinerea [4] (0.1 mg/ml), in the assay with Botrytis cinerea [4] (0.5 mg/ml) and with Botrytis cinerea [4] (1.0 mg/ml) was “+” throughout.
`C[C@@H]1CC(=O)O[C@H](C)Cc2cc(O)cc(O)c2C(=O)O[C@H](C)CC(=O)O[C@H](C)Cc2cc(O)cc(O)c2C(=O)O[C@H](C)CC(=O)O1` [Compound Ib]: the zone of inhibition at 100 µg/mL amounted to 0 mm in the assay with Alternaria alternata (Alternaria alternata, 72 h, 0.1 mg/ml); 0 mm in the assay on Phoma betae (setting [6]); 0 mm in the assay on Botrytis cinerea [2] (Botrytis cinerea, 72 h, 0.1 mg/ml, 15 μl per well, 3 days at 25° C., plates from spores); 0 mm with Phoma lingam (Plenodomus lingam, 72 h, 0.1 mg/ml, read-out: inhibition zone P1); 0 mm with Sclerotinia sclerotiorum (Sclerotinia sclerotiorum, 72 h, 0.1 mg/ml); 0 mm with Pyrenophora teres (0.1 mg/ml). The zone of inhibition at 100 µg/mL in the assay with Ascochyta pisi (setting [10]) is 0 mm; in the assay on Monilinia fructigena (Monilinia fructigena, 72 h, 0.1 mg/ml), 0 mm; in the assay on Botrytis cinerea [4] (setting [11]) it was 0 mm. The zone of inhibition at 500 µg/mL was 15 mm with Alternaria alternata (Alternaria alternata, 72 h); 17 mm in the assay with Phoma betae (Neocamarosporium betae, 72 h); 26 mm in the assay on Botrytis cinerea [2] (setting [8]); 0 mm with Sclerotinia sclerotiorum (Sclerotinia sclerotiorum, 72 h, 0.5 mg/ml); 17 mm with Pyrenophora teres; 0 mm in the assay on Monilinia fructigena (Monilinia fructigena, 72 h). The compound further gave a zone of inhibition at 500 µg/mL with Botrytis cinerea [4] (Botrytis cinerea, 72 h, 0.5 mg/ml) of 0 mm. Further, the zone of inhibition at 1000 µg/mL with Alternaria alternata (Alternaria alternata, 72 h) turned out to be 17 mm; with Phoma betae (Neocamarosporium betae, 72 h, 1.0 mg/ml), 20 mm; with Botrytis cinerea [2] (setting [8]), 30 mm; in the assay with Phoma lingam (setting [9]) it was 12 mm; in the assay on Sclerotinia sclerotiorum (Sclerotinia sclerotiorum, 72 h, 1.0 mg/ml) it was 0 mm; with Pyrenophora teres, 33 mm. Further, the zone of inhibition at 1000 µg/mL is 15 mm in the assay with Ascochyta pisi (Ascochyta pisi, 72 h); 25 mm in the assay with Monilinia fructigena (Monilinia fructigena, 72 h); 0 mm with Botrytis cinerea [4] (Botrytis cinerea, 72 h, 1.0 mg/ml). For the same compound, the IC50 in [1] and in [3] was 6 µg/mL (≈ 9.28 µM) throughout. In addition, the “appearance of Bc zones” value with Botrytis cinerea [2] is “very clear”. Also, the “time of incubation after which Bc zones could be seen” value in the assay on Botrytis cinerea [2] was not above 2 days. For the same compound, the “inhibition zone P1” value in the assay with Phoma lingam (0.5 mg/ml) is reported as “+”. For the same compound, the “inhibition zone Ap” value in the assay with Ascochyta pisi (0.5 mg/ml) is reported as “+”. Moreover, the protection entry in the assay with Botrytis cinerea [5] (36 ppm) and with Botrytis cinerea [5] (360 ppm) was “approx. 50%” throughout. Also, the activity spectrum entry in the assay with plant pathogenic fungi (all pathogens tested, Table 2) was “active, to a higher or lower degree, towards all of the pathogens tested”.
Regarding `C[C@@H]1Cc2cc(O)cc(O)c2C(=O)O[C@H](C)CC(=O)OC[C@@H](O)CC(=O)O[C@H](C)Cc2cc(O)cc(O)c2C(=O)O[C@H](C)CC(=O)O1` [IIIa], in the assay on Alternaria alternata (0.1 mg/ml), the “inhibition zone Aa” value is 0 mm. Also, the “inhibition zone Pb” value in the assay on Phoma betae (0.1 mg/ml) was 0 mm. Moreover, in the assay with Botrytis cinerea [2] (setting [7]), the “inhibition zone Bc2” value is reported as 0 mm. In addition, the “inhibition zone P1” value in the assay on Phoma lingam (0.1 mg/ml) is reported as 0 mm. Also, the “inhibition zone Ss” value with Sclerotinia sclerotiorum (0.1 mg/ml) was 0 mm. For the same compound, the zone of inhibition at 100 µg/mL in the assay with Pyrenophora teres (0.1 mg/ml) and with Botrytis cinerea [4] (setting [11]) was 0 mm throughout. Moreover, the “inhibition zone Ap” value in the assay on Ascochyta pisi (0.1 mg/ml) is 0 mm. Besides, the “inhibition zone Mf” value in the assay on Monilinia fructigena (0.1 mg/ml) is recorded as 0 mm.
In the case of `CC1Cc2cc(O)cc(O)c2C(=O)OC(C)CC(=O)OC(C)Cc2cc(O)cc(O)c2C(=O)OC(C)CC(=O)OC(CO)CC(=O)O1` (centres unmarked) [NG-012], in the assay with nerve growth factor, the “nerve growth factor potentiation” value is “nerve growth factor potentiator”.
